According to patent US4263295A, “Psychoactive 3-(1-2-diarylethyl)-1,4,5,6-tetrahydro-1,2,4-triazines and their method of use” (The Dow Chemical Company, priority 1977, dated 1981):
Where a name gives a salt, the structure may show the parent alone.

Legend:
anxiety = assay: Antianxiety activity, test not specified (background and summary statements); format: in vivo; conditions: test not stated
depression = conditions: U.S. Pat. No. 3,471,486; Journal of Medicinal Chemistry, 12, 257 (1969); cited from earlier work
[1] = system: serum corticosteroid levels; assay: Block of stress-induced rise of serum corticosteroid levels (antianxiety); format: in vivo; conditions: stressed male rats, 20 mg/kg i.p.; for response vs control in vivo at 20 mg/kg: Rattus norvegicus, ip, saline control 100, values below 100% are indicative of activity, read-out: Serum Corticosteroid Levels μg %
Protocol: See British Medical Journal, 1971 (2), p. 310-313. Corticosteroid levels were compared between stressed male rats pretreated with 20 mg/kg of the active compound given by intraperitoneal injection to corticosteroid levels of stressed male rats pretreated with saline. Blood (3 ml) was collected by means of cardiac puncture after methoxyflurane anesthesia. Following clotting, the blood was centrifuged to separate the serum for use in the corticosteroid analysis. The analysis was carried out by adding 5 ml of methylene chloride to 300 μl of the serum sample and vortexing the sample for 15-20 seconds. The samples were then centrifuged at 41 xg for about 5 minutes. The lipid layer was removed by aspiration and 3 ml of the methylene chloride fraction was transferred to a clean tube. To this sample, 3 ml of fluorescence reagent (25% ethanol and 75% concentrated sulfuric acid) was added and vortexed for 5 seconds. Fluorescence development was complete in 20 minutes and was read on a Perkin-Elmer® fluorometer Model 204 at an exciter wavelength of 470 mμ and an analyzer wavelength of 530 mμ. This assay measures free cortisol and corticosterone. The corticosteroid values were calculated as follows: [formula] […] Values below 100% are indicative of activity.

reserpine-induced ptosis = assay: Protection against reserpine-induced ptosis (antidepressant); format: in vivo; conditions: Mus musculus; mice, 30 mg/kg i.p.; reserpine 2.5 mg/kg s.c. after 30 minutes; graded after 45 minutes; saline control 0
Protocol: Groups of four mice were administered 30 mg/kg of the 3-(1,2-diarylethyl)-1,4,5,6-tetrahydro-1,2,4-triazine compounds by intraperitoneal injection via an aqueous carrier. A similar group of mice serving as controls were injected only with the carrier. After 30 minutes, both groups of mice were injected subcutaneously with 2.5 mg/kg of reserpine.
Animals injected with the triazine compound were graded after 45 minutes on the following basis: no ptosis=0, partial ptosis=1, complete ptosis=2. Complete protection against reserpine-induced ptosis gives a value of 0 or 100%.

SMILES	antianxiety activity of prior-art compound (in words) (anxiety)	antidepressant activity of prior-art compound (in words) (depression)	response vs control in vivo at 20 mg/kg [1] [%]	antianxiety activity (in words, from Table II) [1]	inhibition at 30 mg/kg (reserpine-induced ptosis) [%]
c1ccc(CC(C2=NNCCN2)c2ccccc2)cc1 (stereo not drawn) [3-(1,2-diphenylethyl)-1,4,5,6-tetrahydro-1,2,4-triazine]	essentially inactive	antidepressant			
Cl.Fc1ccc(CC(C2=NNCCN2)c2ccccc2)cc1 (stereo not drawn) [Example 1, 3-(2-(4-fluorophenyl)-1-phenylethyl)-1,4,5,6-tetrahydro-1,2,4-triazine monohydrochloride]			25	especially active as antianxiety agents	63
Cl.Clc1ccc(CC(C2=NNCCN2)c2ccccc2)cc1 (stereo not drawn) [Example 2, 3-(2-(4-Chlorophenyl)-1-phenylethyl)-1,4,5,6-tetrahydro-1,2,4-triazine monohydrochloride]			13	especially active as antianxiety agents	88
COc1ccc(C(Cc2ccc(F)cc2)C2=NNCCN2)cc1 (stereo not drawn) [Example 3, 3-(2-(4-Fluorophenyl)-1-(4-methoxyphenyl)ethyl)-1,4,5,6-tetrahydro-1,2,4-triazine monohydrochloride]			82		38
Cc1ccc(C(Cc2ccccc2)C2=NNCCN2)cc1 (stereo not drawn) [Example 4, 3-(1-(4-Methylphenyl)-2-phenylethyl)-1,4,5,6-tetrahydro-1,2,4-triazine monohydrochloride]			67		38
Cc1cccc(CC(C2=NNCCN2)c2ccccc2)c1 (stereo not drawn) [Example 5]			32		25
Cc1ccc(CC(C2=NNCCN2)c2ccccc2)cc1 (stereo not drawn) [Example 6]			62		50
Clc1cccc(CC(C2=NNCCN2)c2ccccc2)c1 (stereo not drawn) [Example 7]			75		88
Cc1cccc(C(Cc2ccccc2)C2=NNCCN2)c1 (stereo not drawn) [Example 8]			52		38
c1ccc(CC(C2=NNCCN2)c2ccc3c(c2)OCO3)cc1 (stereo not drawn) [Example 9]			33	especially active as antianxiety agents	50
c1ccc(CC(C2=NNCCN2)c2ccc3ccccc3c2)cc1 (stereo not drawn) [Example 10, 3-(1-(2-Naphthalenyl)-2-phenylethyl)-1,4,5,6-tetrahydro-1,2,4-triazine monohydrochloride]			54		50
c1ccc(CC(C2=NNCCN2)c2cccc3ccccc23)cc1 (stereo not drawn) [Example 11]			77		25
Cc1ccc(CC(C2=NNCCN2)c2ccccc2)cc1C (stereo not drawn) [Example 12]			33	especially active as antianxiety agents	25
Clc1cccc(Cl)c1CC(C1=NNCCN1)c1ccccc1 (stereo not drawn) [Example 13, 3-(2-(2,6-Dichlorophenyl)-1-phenylethyl)-1,4,5,6-tetrahydro-1,2,4-triazine monohydrochloride]			39		88
Clc1ccc(CC(C2=NNCCN2)c2ccccc2)cc1Cl (stereo not drawn) [Example 14]			79		63
c1ccc(C(Cc2cccc3ccccc23)C2=NNCCN2)cc1 (stereo not drawn) [Example 15]			72		13
c1ccc(C(Cc2ccc3ccccc3c2)C2=NNCCN2)cc1 (stereo not drawn) [Example 16]			39	especially active as antianxiety agents	42
Fc1cccc(CC(C2=NNCCN2)c2ccccc2)c1 (stereo not drawn) [Example 17]			62		25
CN1CCNC(C(Cc2ccc(Cl)cc2)c2ccccc2)=N1 (stereo not drawn) [Example 18, 3-(2-(4-Chlorophenyl)-1-phenylethyl)-1,4,5,6-tetrahydro-1-methyl-1,2,4-triazine monohydrochloride]			77		50
CC(=O)N1CCN(C)N=C1C(Cc1ccccc1)c1ccccc1 (stereo not drawn) [Example 19, 4-acetyl-3-(1,2-diphenylethyl)-1,4,5,6-tetrahydro-1-methyl-1,2,4-triazine monohydrochloride]			77		13
